Data on two compounds can be found in paper PMC11678245, “The Molecular Basis of the Intrinsic and Acquired Resistance to Azole Antifungals in Aspergillus fumigatus” (Journal of Fungi, 2024).

“And” between values parts separate entries of the source, which are not always exact repeats. Identical values can stand only once. Like-named read-outs stand apart in the source and are kept apart here.

In general, MIC80 refers to the lowest concentration that inhibits either 80% of growth or 80% of the strains tested, depending on the study.

The subject of assay [1] is S. cerevisiae strain ADLS overexpressing ScCYP51-6×His. As to the kind of experiment: MIC80 susceptibility, strain ADLS. It counts as cell-based, Saccharomyces cerevisiae. Conditions: for MIC80: Saccharomyces cerevisiae, Table 2, strain ADLS, SD pH 6.8, 48 h, 30 °C, ± SD, read-out: MIC80. The method, then:
(§1) The susceptibilities of S. cerevisiae strains to antifungal drugs were determined as minimum growth inhibitory concentration (MIC) values in 200 μL SD pH 6.8 [24]. Serial 2-fold dilutions of 100 μL of azole or control drugs in SD pH 6.8 were prepared in a 96-well microtiter plate. A portion of a 2 mL SD pH 6.8 overnight culture of the test strain was inoculated into 3 mL fresh SD pH 6.8 and incubated for 4 to 6 h at 30 °C to generate logarithmic-phase cells. These cells were then diluted with fresh SD pH 6.8 to OD600nm = 0.01 (3 × 10^4 CFU), and 100 μL of this cell suspension was added to microtiter plate wells. Cell growth after 48 h incubation at 30 °C with shaking at 200 rpm was determined at 600 nm using a BioTek™ Synergy™ 2 multi-Mode microplate reader controlled using Gen5™ Data Analysis Software version 3.16.10 (BioTek Instruments, Winooski, VT, USA). MIC80 values (80% growth inhibition in the presence of the test drug compared with the untreated control) for each yeast construct were determined as technical triplicates repeated three times for three separate clones.

The test system of assay [2] is S. cerevisiae strain AR (AfCyp51A-6×His, AfCprA2-6×His). As to the kind of experiment: MIC80 susceptibility, strain AR. It counts as cell-based, Saccharomyces cerevisiae. Conditions: Saccharomyces cerevisiae; Table 2; strain AR; SD pH 6.8, 48 h, 30 °C; ± SD; read-out: MIC80. The method, then: as §1
For assay [3], the system named is S. cerevisiae strain ARE (AfCyp51A-6×His, AfCprA2, AfErg6-FLAG). As to the kind of experiment: MIC80 susceptibility, strain ARE. It counts as cell-based, Saccharomyces cerevisiae. The method, then:
as §1

Assay [4] has as its system S. cerevisiae strain ARE T289A (AfCyp51A-6×His T289A, AfCprA2, AfErg6-FLAG). Briefly: MIC80 susceptibility, strain T289A. It counts as cell-based, Saccharomyces cerevisiae. The conditions noted are these: for MIC80: ± SD. The method, then:
as §1

Assay [5] concerns S. cerevisiae strain ARE Y121F T289A (AfCyp51A-6×His Y121F T289A, AfCprA2, AfErg6-FLAG). As to the kind of experiment: MIC80 susceptibility, strain Y121F T289A. It is filed as cell-based, Saccharomyces cerevisiae. The conditions noted are these: for MIC80: Saccharomyces cerevisiae, ± SD, read-out: MIC80. The method, then: as §1
The subject of assay [6] is S. cerevisiae strain BR (AfCyp51B-6×His, AfCprA2-6×His). Briefly: MIC80 susceptibility, strain BR. It is filed as cell-based. The conditions noted are these: Saccharomyces cerevisiae; Table 2; strain BR; SD pH 6.8, 48 h, 30 °C; ± SD; read-out: MIC80. The method, then:
as §1

In assay [7] the test system is S. cerevisiae Y2300 ADΔΔ CYP51 (ScCYP51). As to the kind of experiment: MIC80 susceptibility, strain Y2300 (Table S1). It is filed as cell-based, Saccharomyces cerevisiae. Conditions: Saccharomyces cerevisiae. The method, then:
as §1, with “clones. […]” for “clones.”
Table S1. Azole susceptibilities of ScCYP51 and ScCYP51 T322I expressed
Data for each strain was obtained for […] in three biological replicates.

For assay [8], the system named is S. cerevisiae strain ARE (Y2746). Briefly: Sterol analysis of recombinant yeast strain (GC-MS). It counts as cell-based, Saccharomyces cerevisiae. Conditions: VCZ at concentration slowing growth rate by ~50%, 20% without VCZ. The method, then:
(§2) Yeast strains grown overnight in SD medium pH 6.8 were inoculated in 20 mL fresh medium and grown to OD600nm = 0.5. The cultures were then treated with VCZ at a concentration that reduced the rate of cell growth by ~50%. Untreated control cultures were harvested by centrifugation after 8 h at a cell density of ~2.5, and VCZ-treated cultures were harvested after ~16 h at a similar cell density. The harvested cells were prepared for sterol extraction and analysis using the method described by Müller et al..

The subject of assay [9] is S. cerevisiae strain BRE (Y2747). The assay is described as above. It counts as cell-based, Saccharomyces cerevisiae. Conditions: VCZ at concentration slowing growth rate by ~50%, ~1% without VCZ. The method, then: as §2
Setting [10] is: Saccharomyces cerevisiae, 48 h, pH 6.8, Table 2, strain T289A, SD pH 6.8, 48 h, 30 °C, read-out: MIC80.
[11] abbreviates: Table 2, strain Y121F T289A, SD pH 6.8, 48 h, 30 °C.

Regarding `OC(Cn1cncn1)(Cn1cncn1)c1ccc(F)cc1F` [FLC, fluconazole], the MIC80 in assay [1] is 8 ± 0.2 µM; in assay [2], 6.5 ± 0.7 µM; in [3] (Saccharomyces cerevisiae, 48 h, pH 6.8), 227 ± 19 µM; in [3] (Saccharomyces cerevisiae, Table 3, strain ARE, ± SD, read-out: MIC80) it was 151 ± 66 µM; in [3] (Table 2, strain ARE, SD pH 6.8, 48 h, 30 °C, ± SD) it was 227 ± 18 µM and 227 ± 18.5 µM; in assay [4] (setting [10]), 21.3 ± 2.7 µM. Further, the MIC80 came to 12 ± 2 µM in assay [4] (Saccharomyces cerevisiae, Table 3, strain ARE T289A, read-out: MIC80); 1060 ± 60 µM in assay [5] (setting [11]); 725 ± 65 µM in [5] (Table 3, strain ARE Y121F T289A); 2.9 ± 0.4 µM in [6]; 6.2 ± 0.3 µM in assay [7]. Further, in [1] (higher), the “MIC80 of strain ADLS relative to strain ADΔΔ” value was determined as 3 fold. Also, in [4], the “greater susceptibility (MIC80) of strain T289A compared with strain ARE” value is 11 fold. Also, the “MIC80 of strain T289A relative to strain ADΔΔ” value in assay [4] (higher) amounted to 7 fold. Also, the “increase in resistance (MIC80) of strain Y121F T289A compared with strain ARE” value in assay [5] was found to be 5 fold. Also, in assay [5], the “increase in resistance (MIC80) of strain Y121F T289A compared with strain BRE” value is given as 106 fold. Also, in assay [5], the “increase in resistance (MIC80) of strain Y121F T289A compared with strain T289A” value is 53 fold. Besides, in assay [5], the “increase in resistance (MIC80) of strain Y121F T289A compared with strain Y121F” value worked out at 4 fold.

As to `C[C@@H](c1ncncc1F)[C@](O)(Cn1cncn1)c1ccc(F)cc1F` [VCZ, voriconazole], the MIC80 in assay [1] is 0.17 ± 0.03 µM; in [2], 0.11 ± 0.02 µM; in assay [3] (Saccharomyces cerevisiae, Table 2, strain ARE, SD pH 6.8, 48 h, 30 °C, ± SD, read-out: MIC80) it was 0.27 ± 0.03 µM; in assay [4] (setting [10]) it was less than 0.12 µM; in assay [4] (Table 2, strain T289A, SD pH 6.8, 48 h, 30 °C) it was 0.11 ± 0.00 µM; in [5] (setting [11]) it was 2.86 ± 0.22 µM. The figures for the MIC80 in [6] and in [7] were 0.07 ± 0.01 µM and 0.71 ± 0.03 µM, respectively. For the same compound, in assay [3] (higher), the “MIC80 of strain ARE relative to strain ADΔΔ” value was 4- to 5 fold. In addition, the “greater susceptibility (MIC80) of strain T289A compared with strain ARE” value in assay [4] is 2.5 fold. Also, the “increase in resistance (MIC80) of strain Y121F T289A compared with strain BRE” value in [5] is 4 fold. In addition, the “increase in resistance (MIC80) of strain Y121F T289A compared with strain T289A” value in [5] is given as 4 fold. The “eburicol content in the presence of VCZ” value in [8] was 25 % of total sterol; in assay [9] it was ~ 20 % of total sterol.
